Measurements taken from patent EP0312283A2, “Di-or tripeptide renin inhibitors containing lactam conformational restrictions in ACHPA” (Merck & Co., Inc., priority 1987, dated 1989).

Test system: human plasma renin
Test: In vitro inhibition of human plasma renin (Boger et al. assay)
Format: biochemical
Description: In vitro inhibition of human plasma renin was measured as described by Boger, et al., J. Med. Chem (1985) 28, 1779.
They were analyzed for purity by HPLC (30 minute gradient, 5% CH3CN-H2O to 95% CH3CN-H20 buffered with 0.1% H3PO4; C18 reverse phase column), and were analyzed for composition by C, H, and N combustion analysis. IC50 values were measured in vitro using the human plasma renin assay, as described by Boger et al. J. Med. Chem. (1985) 28, 1779.

IC50: 7.7 nM
Substance: Boc-Phe-His-(ACHP-1-(2-Hydroxyethyl)-2-Pyrrolidinone [Example 3H]
